# Data published in patent US10329542B2, “HBV RNAse H purification and enzyme inhibitors” (Saint Louis University, priority 2012, dated 2019).
# “Also recorded” adds a separate entry of the source.
# Key:
# HBV genotype A [1] = test: HBV replication inhibition in Huh7 cells, Southern blot, genotype A; type: cell-based, Hepatitis B virus; details: for Inhibition of HBV replication, RNA:DNA heteroduplex signature: 10 μM, Huh7 cells, Southern blot
# Experimental: Huh7 cells were maintained in Dulbecco's modified Eagle's medium with 10% fetal bovine serum at 37° C. in 5% CO2. Cells were seeded into 60 mm dishes and transfected at 70% confluency with 2.6 μg of plasmids using TransIT-LT1 (Mirus, Inc.). Test compounds were added the morning following transfection at 10 or 50 μM, and fresh medium containing the compounds was provided every 1-2 days. Four or five days post-transfection HBV cores were isolated by lysis of the cells in 10 mM Tris pH 7.5, 1 mM EDTA, 0.25% NP40, 50 mM NaCl, and 8% sucrose followed by sedimentation through a 30% sucrose cushion as described (Travis, et al., 1998). Viral DNAs were isolated from cytoplasmic core particle preparations by proteinase K digestion followed by phenol/chloroform extraction as described (Gong et al., 2001). Duplicate aliquots of the nucleic acids were treated with 2 U E. coli DNAse-free RNAseH (Invitrogen) at 37° C. for 30 min. or were mock treated. The nucleic acid samples were resolved by electrophoresis on 1.2% agarose gels and detected by Southern blotting with ^32P-labeled HBV DNA as a probe.
# Finally, the inventors asked whether HBV RNAseH inhibitors could block HBV replication in culture. Huh7 cells were transfected with genomic expression vectors for HBV genotype A or D isolates, the cells were treated with 10 or 50 μM compounds, and viral nucleic acids were isolated from intracellular HBV capsids after four days. Replicate nucleic acid aliquots were mock treated or treated with DNAse-free E. coli RNAseH to destroy RNA:DNA heteroduplexes, and then HBV DNAs were detected by Southern blotting. The signature of RNAseH inhibition is accumulation of RNA:DNA heteroduplexes that migrate as double-stranded species without exogenous RNAseH treatment but as faster-migrating single-stranded DNAs following RNAseH treatment.
# Inhibition of HBV replication by βTJ was measured as recently described (Tavis et al., 2013). Briefly, Huh7 cells were transfected with HBV genomic expression vectors using TransIT-LT1 (Mirus, Inc.), βTJ was added 12-16 hrs post-transfection at the indicated concentrations, and fresh medium containing the compounds was provided two days later. HBV core particles were isolated four days post-transfection by detergent lysis of the cells and sedimentation through a sucrose cushion as described (Tavis et al., 1998). Viral DNAs were isolated from cytoplasmic core particle preparations by proteinase K digestion followed by phenol/chloroform extraction as described (Gong et al., 2001). Duplicate aliquots of each nucleic acid preparation were treated with 2 U E. coli DNAse-free RNAseH (Invitrogen) at 37° C. for 30 min. or were mock treated. The nucleic acids were resolved by electrophoresis on 1.2% agarose gels and HBV DNAs were detected by Southern blotting with ^32P-labeled double-stranded HBV DNA as a probe to detect both the plus- and minus-polarity HBV DNA strands. HBV core protein (HBc) and β-actin in the cytoplasmic lysates were monitored by western analysis using an anti-HBc antibody (HBP-023-9, Austral Biologicals) and a mouse […] monoclonal antibody from ZSGB-BIO Co., Ltd., respectively. HBV surface antigen (HBs) proteins were quantified by ELISA (Shanghai Kehua Biotech).
# HBV genotype A [2] = test: Plus-polarity preferential real-time PCR of HBV DNA, Huh7 cells; type: cell-based, Hepatitis B virus
# Experimental: Plus-polarity preferential quantitative TaqMan PCR for the HBV DNA was conducted employing forward primer […] (SEQ ID NO: 13), reverse primer […] (SEQ ID NO:14), and probe 5′-6Fam-[…]-Zen-[…]-IabkFQ-3′ (5′-6Fam-SEQ ID NO:15-Zen-SEQ ID NO: 16-IabkFQ-3′) (Integrated DNA Technologies). PCR was conducted on purified HBV capsid-derived nucleic acids for 40 cycles of 95° C. for 15 sec. and 65° C. for 1 min. employing the TaqMan universal PCR master mix (Applied Biosystems). Results were standardized against serial dilutions of cloned HBV DNA. The EC50 was estimated by linear regression of the real-time PCR data.
# The HBV plus-polarity DNA strand was measured to quantify the effects of βTJ on HBV replication because plus-polarity DNA cannot be made without RNAseH activity. Real-time PCR primers flanking the gap in the HBV minus-polarity DNA were designed that preferentially measure plus-polarity DNA because amplification across the gap in the minus-polarity DNA is inefficient. […] Above 10 μM, βTJ suppressed HBV plus-polarity DNA levels to below the assay background of approximately 14% that was determined with the D702A RNAseH-deficient genome.
# Huh7 cells = test: MTS cytotoxicity assay in Huh7 cells; type: cell-based, human
# Experimental: Toxicity of βTJ in Huh7 cells was determined with 3-(4,5-dimethylthiazol-2-yl)-5-β-carboxymethoxyphenyl)-2-(4-sulfophenyl)-2H-tetrazolium (MTS) assays that measures mitochondrial dysfunction employing the Cell Titre 96 aqueous nonradioactive cell proliferation assay (Promega), and with the CytoTox-Glo assay (Promega) that reflects cellular integrity. Huh7 and HepG2 cells (1×10^4) were plated in 96-well tissue culture plates, medium containing βTJ at the indicated concentrations was added the next day, the medium was replaced with fresh medium containing βTJ after two days, and after four days the MTS or CytoTox-Glo assays were conducted according to the manufacturer's instructions.
# HBV = test: Quantitative PCR screen of HBV plus-polarity DNA accumulation; type: cell-based, Hepatitis B virus; details: 60, 20, or 6.7 μM; DNA isolated day 3
# Experimental: This assay was employed to screen 7 compounds for their ability to suppress HBV replication (FIG. 17). […] Fresh medium containing compound was provided on days 1 and 2, and capsid-associated HBV DNAs were isolated on day 3. HBV plus-strand DNAs were measured using the cross-gap TaqMan PCR assay.
# Plus-polarity preferential quantitative TaqMan PCR for the HBV DNA was conducted employing forward primer […] […] PCR was conducted on purified HBV capsid-derived nucleic acids for 40 cycles of 95° C. for 15 sec. and 65° C. for 1 min. employing the TaqMan universal PCR master mix (Applied Biosystems). Results were standardized against serial dilutions of cloned HBV DNA. The EC50 was estimated by linear regression of the real-time PCR data.
structure (smiles),measurement,setting,value
Cc1c2cc(O)c(=O)cc-2oc2cc(O)c(O)cc12 [Compound 8],"Inhibition of HBV replication, RNA:DNA heteroduplex signature",HBV genotype A [1],did not affect HBV replication
"NCc1ccc(-c2ccc(Cc3cc(=O)n(O)c4ncccc34)cc2)cc1 [Compound 12, napthyridinone]","Inhibition of HBV replication, RNA:DNA heteroduplex signature",HBV genotype A [1],blocked production of the slowest-migrating double-stranded forms; also recorded: inhibited HBV replication in cell culture; also recorded: inhibited production of the slowest-migrating (mature) viral DNA
same,Plus-strand DNA accumulation,"HBV genotype A [2]; 10 μM, data not shown",7.3 % of the DMSO treated control
same,"Estimated CC50, MTS assay, Huh7 cells",Huh7 cells,low μM range
COc1ccc2ccccc2c1C=NNC(=O)c1cc(O)c(O)c(O)c1 [Compound 14],Inhibition of HBV replication,HBV genotype A [1]; 25 μM,inhibited HBV replication in one experiment
CCOc1ccc(-c2c3cc(O)c(=O)cc-3oc3cc(O)c(O)cc23)cc1 [Compound 30],Suppression of HBV plus-polarity DNA accumulation,HBV,inhibited accumulation of HBV plus-polarity DNA to lesser extents
[N-]=[N+]=NCc1cccc(C(=O)CC(=O)C(=O)O)c1 [Compound 40],Inhibition of HBV replication,HBV genotype A [1]; 50 μM,inhibited replication in another experiment
"CC(C)c1ccc(O)c(=O)c(O)c1 [Compound 46, beta-thujaplicinol]","Inhibition of HBV replication, RNA:DNA heteroduplex signature",HBV genotype A [1],inhibited HBV replication in cell culture; also recorded: inhibited production of the slowest-migrating (mature) viral DNA
same,Accumulation of RC DNA and RNA:DNA heteroduplexes,"HBV genotype A [1]; 2.5, 10, 15, and 20 μM, four days",suppressed accumulation of the RC DNA
same,Total amount of viral DNA detected,HBV genotype A [1]; 15 and 20 μM,suppressed
same,HBV plus-polarity DNA level,"HBV genotype A [2]; above 10 μM, assay background approximately 14%",< 14%
same,EC50,"HBV genotype A [2]; read-out: 50% effective concentration (EC50), genotype A isolate in Huh7 cells",~5 µM
same,Suppression of HBV plus-polarity DNA accumulation,HBV,suppressed viral replication to background
same,CC50,Huh7 cells; four days,10.1 ± 1.7 µM
